In US10669261B2, “Heteroarylhydroxypyrimidinones as agonists of the APJ receptor” (BRISTOL-MYERS SQUIBB COMPANY, priority 2015, dated 2020):

These compounds were tested against T1, human APJ receptor (Homo sapiens, UniProt P35414) (assay: Intracellular cAMP accumulation assay (APJ hcAMP, HTRF)). Settings: HEK293 cells stably expressing human APJ receptor; inhibition of forskolin-mediated cAMP production; stated at end of example; read-out: Human APJ cAMP Potency Range.
T1 construct: expressed in transfected cells
T1 sequence (P35414 1-380): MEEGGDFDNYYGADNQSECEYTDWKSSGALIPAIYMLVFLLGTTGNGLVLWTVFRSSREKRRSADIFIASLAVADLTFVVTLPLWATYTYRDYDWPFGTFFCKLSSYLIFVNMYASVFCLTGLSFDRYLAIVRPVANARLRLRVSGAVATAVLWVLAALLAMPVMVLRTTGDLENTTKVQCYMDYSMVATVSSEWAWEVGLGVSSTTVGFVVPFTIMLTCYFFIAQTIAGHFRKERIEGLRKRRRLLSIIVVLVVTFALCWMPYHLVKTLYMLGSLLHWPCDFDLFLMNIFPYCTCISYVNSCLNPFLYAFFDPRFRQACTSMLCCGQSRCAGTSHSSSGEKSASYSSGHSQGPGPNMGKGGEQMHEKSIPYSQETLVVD
Assay type: cell-based
In short: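 HEK293 cells stably expressing the receptor (5,000/well) treated with compound plus […] and 2 μM forskolin for 30 min at room temperature; cAMP by HTRF against a cAMP standard curve. EC50 from variable-slope sigmoidal fit; Ymax as % of (Pyr1)apelin-13 inhibition.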

EC50	SMILES
0.01 to 10 nM	CCCCc1nc(=O)c(-c2nnc(Cc3noc4ccccc34)o2)c(O)n1-c1c(OC)cccc1OC [Example 1, 5-(5-(benzo[d]isoxazol-3-ylmethyl)-1,3,4-oxadiazol-2-yl)-2-butyl-1-(2,6-dimethoxyphenyl)-6-hydroxypyrimidin-4(1H)-one]

Same assay, conditions: Table 1; HEK293 cells stably expressing human APJ receptor; read-out: hAPJ cAMP EC50 Potency range

SMILES	EC50
CCOCc1nc(=O)c(-c2nnc(Cc3ccc(Cl)c(F)c3)o2)c(O)n1-c1c(OC)cccc1OC [Example 38, 5-{5-[(4-chloro-3-fluorophenyl)methyl]-1,3,4-oxadiazol-2-yl}-1-(2,6-dimethoxyphenyl)-2-(ethoxymethyl)-6-hydroxy-1,4-dihydropyrimidin-4-one]	0.01 to 10 nM
COc1cccc(OC)c1-n1c(CCC2CC2)nc(=O)c(-c2nnc(CN3CCOCC3=O)o2)c1O [Example 47, 4-({5-[2-(2-cyclopropylethyl)-1-(2,6-dimethoxyphenyl)-6-hydroxy-4-oxo-1,4-dihydropyrimidin-5-yl]-1,3,4-oxadiazol-2-yl}methyl)morpholin-3-one]	0.01 to 10 nM
COc1cccc(OC)c1-n1c(C2CCC2)nc(=O)c(-c2nnc(Cc3ncc(Cl)cc3F)o2)c1O [Example 71, 5-{5-[(5-chloro-3-fluoropyridin-2-yl)methyl]-1,3,4-oxadiazol-2-yl}-2-cyclobutyl-1-(2,6-dimethoxyphenyl)-6-hydroxy-1,4-dihydropyrimidin-4-one]	0.01 to 10 nM
COc1cccc(OC)c1-n1c(CCC(C)C)nc(=O)c(-c2nnc(Cn3ccccc3=O)o2)c1O [Example 10, 1-(2,6-dimethoxyphenyl)-6-hydroxy-2-(3-methylbutyl)-5-{5-[(2-oxo-1,2-dihydropyridin-1-yl)methyl]-1,3,4-oxadiazol-2-yl}-1,4-dihydropyrimidin-4-one]	0.01 to 10 nM
COc1cccc(OC)c1-n1c(CCC(C)C)nc(=O)c(-c2nnc(CN3CCCC3=O)o2)c1O [Example 7, 1-(2,6-dimethoxyphenyl)-6-hydroxy-2-(3-methylbutyl)-5-{5-[(2-oxopyrrolidin-1-yl)methyl]-1,3,4-oxadiazol-2-yl}-1,4-dihydropyrimidin-4-one]	0.01 to 10 nM

The remaining lines, values ahead:

EC50	SMILES
0.01 to 10 nM	CCCCc1nc(=O)c(-c2nnc(Cn3ccccc3=O)o2)c(O)n1-c1c(OC)cccc1OC [Example 6, 2-butyl-1-(2,6-dimethoxyphenyl)-6-hydroxy-5-{5-[(2-oxo-1,2-dihydropyridin-1-yl)methyl]-1,3,4-oxadiazol-2-yl}-1,4-dihydropyrimidin-4-one]
0.01 to 10 nM	CCCCc1nc(=O)c(-c2nnc(Cc3noc4ccccc34)o2)c(O)n1-c1c(CC)cccc1CC [Example 4, 5-[5-(1,2-benzoxazol-3-ylmethyl)-1,3,4-oxadiazol-2-yl]-2-butyl-1-(2,6-diethylphenyl)-6-hydroxy-1,4-dihydropyrimidin-4-one]
0.01 to 10 nM	CCCCc1nc(=O)c(-c2nnc(Cc3noc4ccccc34)o2)c(O)n1-c1c(Br)cccc1Br [Example 15, 5-[5-(1,2-benzoxazol-3-ylmethyl)-1,3,4-oxadiazol-2-yl]-2-butyl-1-(2,6-dibromophenyl)-6-hydroxy-1,4-dihydropyrimidin-4-one]
0.01 to 10 nM	COc1cccc(OC)c1-n1c(CC2CC2)nc(=O)c(-c2nnc(Cc3noc4ccccc34)o2)c1O [Example 20, 5-[5-(1,2-benzoxazol-3-ylmethyl)-1,3,4-oxadiazol-2-yl]-2-(cyclopropylmethyl)-1-(2,6-dimethoxyphenyl)-6-hydroxy-1,4-dihydropyrimidin-4-one]
0.01 to 10 nM	CCCCc1nc(=O)c(-c2nnc(Cc3ccc(Cl)cc3)o2)c(O)n1-c1c(OCC)cccc1OCC [Example 26, 2-butyl-5-{5-[(4-chlorophenyl)methyl]-1,3,4-oxadiazol-2-yl}-1-(2,6-diethoxyphenyl)-6-hydroxy-1,4-dihydropyrimidin-4-one]
0.01 to 10 nM	C=CCCc1nc(=O)c(-c2nnc(Cc3nc(-c4ccccn4)no3)o2)c(O)n1-c1c(OC)cccc1OC [Example 11, 2-(but-3-en-1-yl)-1-(2,6-dimethoxyphenyl)-6-hydroxy-5-(5-{[3-(pyridin-2-yl)-1,2,4-oxadiazol-5-yl]methyl}-1,3,4-oxadiazol-2-yl)-1,4-dihydropyrimidin-4-one]

Same assay, conditions: Table 2; HEK293 cells stably expressing human APJ receptor; read-out: hAPJ cAMP EC50 Potency range

SMILES	EC50
CCCCc1nc(O)c(-c2nnc(Cc3csc(C)n3)o2)c(=O)n1[C@H]1CCc2ccccc21 [Example 97, 2-butyl-3-[(1S)-2,3-dihydro-1H-inden-1-yl]-6-hydroxy-5-{5-[(2-methyl-1,3-thiazol-4-yl)methyl]-1,3,4-oxadiazol-2-yl}-3,4-dihydropyrimidin-4-one]	0.01 to 10 nM
CCCCc1nc(O)c(-c2nnc(Cc3ccc(Cl)cn3)o2)c(=O)n1[C@@H](CC)c1ccccc1 [Example 118, 2-butyl-5-{5-[(5-chloropyridin-2-yl)methyl]-1,3,4-oxadiazol-2-yl}-6-hydroxy-3-[(1S)-1-phenylpropyl]-3,4-dihydropyrimidin-4-one]	0.01 to 10 nM
CCCCc1nc(O)c(-c2nnc(Cc3csc(C)n3)o2)c(=O)n1[C@@H](COC)c1ccccc1 [Example 94, 2-butyl-6-hydroxy-3-[(1R)-2-methoxy-1-phenylethyl]-5-{5-[(2-methyl-1,3-thiazol-4-yl)methyl]-1,3,4-oxadiazol-2-yl}-3,4-dihydropyrimidin-4-one]	0.01 to 10 nM
CCCCc1nc(O)c(-c2nnc(Cc3csc(C)n3)o2)c(=O)n1[C@H](C)c1ccccc1OC [Example 79, 2-butyl-6-hydroxy-3-[(1R)-1-(2-methoxyphenyl)ethyl]-5-{5-[(2-methyl-1,3-thiazol-4-yl)methyl]-1,3,4-oxadiazol-2-yl}-3,4-dihydropyrimidin-4-one]	0.01 to 10 nM

Continued, values first:

EC50	SMILES
10 to 100 nM	CCCCc1nc(O)c(-c2nnc(Cc3noc4ccccc34)o2)c(=O)n1[C@@H](C)c1cccc(C#N)c1 [Example 103, 3-[(1S)-1-(5-{5-[(1,2-benzoxazol-3-yl)methyl]-1,3,4-oxadiazol-2-yl}-2-butyl-4-hydroxy-6-oxo-1,6-dihydropyrimidin-1-yl)ethyl]benzonitrile]
10 to 100 nM	CCCCc1nc(O)c(-c2nnc(Cc3noc4ccccc34)o2)c(=O)n1C(c1ccccc1)C(C)C (stereo not drawn) [Example 115, 5-{5-[(1,2-benzoxazol-3-yl)methyl]-1,3,4-oxadiazol-2-yl}-2-butyl-6-hydroxy-3-(2-methyl-1-phenylpropyl)-3,4-dihydropyrimidin-4-one]
10 to 100 nM	CCCCc1nc(O)c(-c2nnc(Cc3noc4ccccc34)o2)c(=O)n1[C@H](C)c1ccccc1OC [Example 78, 5-{5-[(1,2-benzoxazol-3-yl)methyl]-1,3,4-oxadiazol-2-yl}-2-butyl-6-hydroxy-3-[(1R)-1-(2-methoxyphenyl)ethyl]-3,4-dihydropyrimidin-4-one]
10 to 100 nM	CCCCc1nc(O)c(-c2nnc(Cc3noc4ccccc34)o2)c(=O)n1[C@@H](CCC)c1ccccc1 [Example 107, 5-{5-[(1,2-benzoxazol-3-yl)methyl]-1,3,4-oxadiazol-2-yl}-2-butyl-6-hydroxy-3-[(1S)-1-phenylbutyl]-3,4-dihydropyrimidin-4-one]
0.01 to 10 nM	CCCCc1nc(O)c(-c2nnc(Cc3ccc(Cl)cn3)o2)c(=O)n1[C@H](C)c1ccccc1 [Example 120, 2-butyl-5-{5-[(5-chloropyridin-2-yl)methyl]-1,3,4-oxadiazol-2-yl}-6-hydroxy-3-[(1R)-1-phenylethyl]-3,4-dihydropyrimidin-4-one]
